Measurements as given in patent publication US20260144879A1, “ANTI-VIRAL AND HEPATIC-TARGETED DRUGS” (AI-BIOPHARMA, priority 2019, published 2026).

How the values were obtained:
[1] = tested on: HBV (genotype D, serotype ayw, Galibert's strain); test: Quantification of virion associated secreted HBV DNA in supernatant of HBV-infected differentiated HepaRG (dHepaRG) cells by qPCR, % of replication vs DMSO; format: cell-based, hepatitis B virus; settings: 1 μM compound, 7 days treatment, DMSO = 100%; for activity at 1 µM: Hepatitis B virus, HepaRG, 168 h, read-out: dHepaRG HBV % of replication at 1 μM compared to DMSO
Method: (§1) From Methods in Lucifora J. et al. (Direct antiviral properties of TLR ligands against HBV replication in immune-competent hepatocytes, Science Scientific Reports, 2018, 8:5390): • 1) HepaRG cells were cultured, as described previously by Gripon P. et al. (Infection of a human hepatoma cell line by hepatitis B virus. Proc Natl Acad Sci USA, 2002, 99, p 15655-15660) on pages 15655 and 15656, in Williams E medium supplemented with 10% fetal calf serum, 50 U penicillin/streptomycin (Gibco-Invitrogen) ml^−1, […] ml^−1 and 5×10^−7 M hydrocortisone hemisuccinate (Roche Diagnostics and Boehringer Mannheim, respectively). The cell cultures were maintained in a 5% CO2 atmosphere at 37° C. During the proliferation phase, culture medium was renewed every 2 days. For differentiation and infection, cells were maintained for 2 weeks in standard medium and then for at least 2 more weeks in medium supplemented with 1.8-2.0% DMSO (Sigma). • 2) Primary Human Hepatocytes (PHH) were freshly prepared from human liver resection as previously described by Lecluyse, E. L. & Alexandre, E. (Isolation and culture of primary hepatocytes from resected human liver tissue. Methods Mol Biol, 2010, 640, p 57-82, https://doi.org/10.1007/978-1-60761-688-7_3) on page 63 paragraph 3. “Methods” from section 3.1. through 3.6.2. page 77. All experimental procedures were conducted in conformity with French laws and regulations and were approved by the National Ethics Committee. • 3) Cell viability was measured by both neutral red and MTS (CellTiter 96 Aqueous One Solution cell proliferation assay; Promega) tests. • 4) HBV inoculum (genotype D, serotype ayw, Galibert's strain referred as NC_003977.2 at NCBI) was prepared from HepAD38 (see Ladner, S. K. et al., Inducible expression of human hepatitis B virus (HBV) in stably transfected hepatoblastoma cells: a novel system for screening potential inhibitors of HBV replication. Antimicrob Agents Chemother, 1997, 41, p 1715-1720) supernatants by polyethylene-glycol-MW-8000 (PEG8000, SIGMA) precipitation (8% final) as previously described by Luangsay, S. et al. (Early inhibition of hepatocyte innate responses by hepatitis B virus. J Hepatol, 2015, 63, p 1314-1322, https://doi.org/10.1016/j.jhep.2015.07.014).
(§2) Viral stocks with titer reaching at least 1×10^10 viral genome equivalent (vge)/mL were tested endotoxin free.
(§3) Differentiated HepaRG (dHepaRG) or PHH were infected by HBV at a multiplicity of infection of 100-200 vge/cell in culture medium containing 4% PEG 8000 (Sigma) for 16 h at 37° C. in 12- or six-well plates. At the end of the incubation period, cells were washed once with medium and then cultured in Williams E medium containing DMSO as indicated. In general infection was left for 7 days before any treatment was started, to allow replication reaching its maximum. • 5) Infected cell treatment with compounds of interest: • 5a: After 7 days of infection with the virus (day 0 to day 7), the dHepaRG cells were treated (3 treatments: day 7, day 10 and day 12) with a […] of the tested compound (diluted with sterile water from a 10 mM stock DMSO solution) or DMSO as reference negative control for 7 more days. • 5b: After 4 days of infection with the virus (day 0 to day 4), the PHH cells were treated (3 treatments: day 4, day 7 and day 9) with a […] of the tested compound (diluted with sterile water from a 10 mM stock DMSO solution) for 7 more days. • 6) Quantification of virion associated secreted HBV DNA in cell culture supernatant:
(§4) At the end of the experiment (7 days treatment) the supernatant of infected and treated cells (either dHepaRG or PHH or others) is collected. It is diluted 1/4 into sterile water (molecular biology quality) then treated for 30 minutes with RNAse (10 unit) and DNAse (10 unit) to remove non encapsidated material. […]

[2] = tested on: HBV (genotype D, serotype ayw, Galibert's strain); test: Quantification of virion associated secreted HBV DNA in supernatant of HBV-infected Primary Human Hepatocytes (PHH) by qPCR, % of replication vs DMSO; format: cell-based, hepatitis B virus; settings: 1 μM compound, 7 days treatment, DMSO = 100%; for activity at 1 µM: Hepatitis B virus, Hepatocyte, 168 h, (*) n = 1, read-out: PHH HBV % of replication at 1 μM compared to DMSO
Method: as §1, §2, §3, §4

| SMILES | activity at 1 µM [1] [%] | activity at 1 µM [2] [%] | dHepaRG HBV % of replication at 1 μM compared to DMSO [1] | PHH HBV % of replication at 1 μM compared to DMSO ([2]; (*) n = 1) |
| --- | --- | --- | --- | --- |
| C[C@H](Cn1cnc2c(N)ncnc21)OCP1(=O)OCC(CCC(=O)OC2CCCC2)CO1 (stereo partly drawn) [Example 10, (R)-cyclopentyl 3-(2-(((1-(6-amino-9H-purin-9-yl)propan-2-yl)oxy)methyl)-2-oxo-1,3,2-dioxaphosphinan-5-yl)propanoate] | 50 to 80 | ≤ 30 | – | – |
| CC(C)OC(=O)CC1COP(=O)(CO[C@H](C)Cn2cnc3c(N)ncnc32)OC1 (single isomer, unassigned) [Example 3a] | ≤ 30 | ≤ 30 | – | – |
| CC(C)OC(=O)CCC1COP(=O)(CO[C@H](C)Cn2cnc3c(NC(=O)c4ccccc4)ncnc32)OC1 (stereo partly drawn) [Example 25, (R)-isopropyl 3-(2-(((1-(6-benzamido-9H-purin-9-yl)propan-2-yl)oxy)methyl)-2-oxo-1,3,2-dioxaphosphinan-5-yl)propanoate] | 50 to 80 | 50 to 80 | – | – |
| CCOC(=O)CC1COP(=O)(CO[C@H](C)Cn2cnc3c(NC(=O)C(C)C)ncnc32)OC1 (stereo partly drawn) [Example 16, (R)-ethyl 2-(2-(((1-(6-isobutyramido-9H-purin-9-yl)propan-2-yl)oxy)methyl)-2-oxo-1,3,2-dioxaphosphinan-5-yl)acetate] | ≤ 30 | ≤ 30 | – | – |
| CCOC(=O)CC1COP(=O)(CO[C@H](C)Cn2cnc3c(NC(=O)c4ccccc4)ncnc32)OC1 (stereo partly drawn) [Example 19, (R)-ethyl 2-(2-(((1-(6-benzamido-9H-purin-9-yl)propan-2-yl)oxy)methyl)-2-oxo-1,3,2-dioxaphosphinan-5-yl)acetate] | ≤ 30 | ≤ 30 | – | – |
| COC(=O)CC1COP(=O)(CO[C@H](C)Cn2cnc3c(N)ncnc32)OC1 (stereo partly drawn) [Example 1, (R)-methyl 2-(2-(((1-(6-amino-9H-purin-9-yl)propan-2-yl)oxy)methyl)-2-oxo-1,3,2-dioxaphosphinan-5-yl)acetate] | ≤ 30 | ≤ 30 | – | – |
| CCOC(=O)CC1COP(=O)(CO[C@H](C)Cn2cnc3c(N(C(C)=O)C(C)=O)ncnc32)OC1 (stereo partly drawn) [Example 14, (R)-ethyl 2-(2-(((1-(6-(N-acetylacetamido)-9H-purin-9-yl)propan-2-yl)oxy)methyl)-2-oxo-1,3,2-dioxaphosphinan-5-yl)acetate] | 50 to 80 | 50 to 80 | – | – |
| C[C@H](Cn1cnc2c(N)ncnc21)OCP1(=O)OCC(CC(=O)OC2CCCC2)CO1 (stereo partly drawn) [Example 5, (R)-cyclopentyl 2-(2-(((1-(6-amino-9H-purin-9-yl)propan-2-yl)oxy)methyl)-2-oxo-1,3,2-dioxaphosphinan-5-yl)acetate] | ≤ 30 | ≤ 30 | – | – |
| CC(C)OC(=O)CC1COP(=O)(CO[C@H](C)Cn2cnc3c(NC(=O)C(C)C)ncnc32)OC1 (stereo partly drawn) [Example 21a, (R)-isopropyl 2-(2-(((1-(6-isobutyramido-9H-purin-9-yl)propan-2-yl)oxy)methyl)-2-oxido-1,3,2-dioxaphosphinan-5-yl)acetate] | ≤ 30 | ≤ 30 | – | – |
| CCOC(=O)CC1COP(=O)(CO[C@H](C)Cn2cnc3c(N)ncnc32)OC1 (stereo partly drawn) [Example 2, (R)-ethyl 2-(2-(((1-(6-amino-9H-purin-9-yl)propan-2-yl)oxy)methyl)-2-oxo-1,3,2-dioxaphosphinan-5-yl)acetate] | ≤ 30 | ≤ 30 | – | – |
| Nc1ncnc2c1ncn2CCOCP(=O)(O)O [ADF] | – | – | ++ (50% < ++ ≤ 80%) | ++ (50% < ++ ≤ 80%) |
| COC(=O)CCC1COP(=O)(CO[C@H](C)Cn2cnc3c(N)ncnc32)OC1 (stereo partly drawn) [Example 6, (R)-methyl 3-(2-(((1-(6-amino-9H-purin-9-yl)propan-2-yl)oxy)methyl)-2-oxido-1,3,2-dioxaphosphinan-5-yl)propanoate] | 50 to 80 | > 80 | – | – |
| CCOC(=O)CC1COP(=O)(CO[C@H](C)Cn2cnc3c(NC(=O)CC(C)C)ncnc32)OC1 (stereo partly drawn) [Example 17, (R)-ethyl 2-(2-(((1-(6-(3-methylbutanamido)-9H-purin-9-yl)propan-2-yl)oxy)methyl)-2-oxo-1,3,2-dioxaphosphinan-5-yl)acetate] | 30 to 50 | ≤ 30 | – | – |
| CCOC(=O)CC1COP(=O)(CO[C@H](C)Cn2cnc3c(NC(=O)CC)ncnc32)OC1 (stereo partly drawn) [Example 15, (R)-ethyl 2-(2-oxo-2-(((1-(6-propionamido-9H-purin-9-yl)propan-2-yl)oxy)methyl)-1,3,2-dioxaphosphinan-5-yl)acetate] | ≤ 30 | ≤ 30 | – | – |
| CC(C)OC(=O)CCC1COP(=O)(CO[C@H](C)Cn2cnc3c(N)ncnc32)OC1 (stereo partly drawn) [Example 8, (R)-isopropyl 3-(2-(((1-(6-amino-9H-purin-9-yl)propan-2-yl)oxy)methyl)-2-oxo-1,3,2-dioxaphosphinan-5-yl)propanoate] | 50 to 80 | 50 to 80 | – | – |
| CCOC(=O)CC1COP(=O)(CO[C@H](C)Cn2cnc3c(NC(C)=O)ncnc32)OC1 (stereo partly drawn) [Example 13, (R)-ethyl 2-(2-(((1-(6-acetamido-9H-purin-9-yl)propan-2-yl)oxy)methyl)-2-oxo-1,3,2-dioxaphosphinan-5-yl)acetate] | 50 to 80 | ≤ 30 | – | – |
| CCCCCCOC(=O)CC1COP(=O)(CO[C@H](C)Cn2cnc3c(N)ncnc32)OC1 (stereo partly drawn) [Example 5b, (R)-hexyl 2-(2-(((1-(6-amino-9H-purin-9-yl)propan-2-yl)oxy)methyl)-2-oxo-1,3,2-dioxaphosphinan-5-yl)acetate] | 30 to 50 | ≤ 30 | – | – |
| CCOC(=O)CCC1COP(=O)(CO[C@H](C)Cn2cnc3c(N)ncnc32)OC1 (stereo partly drawn) [Example 7, (R)-ethyl 3-(2-(((1-(6-amino-9H-purin-9-yl)propan-2-yl)oxy)methyl)-2-oxo-1,3,2-dioxaphosphinan-5-yl)propanoate] | 50 to 80 | 50 to 80 | – | – |
| CC1COP(=O)(CO[C@H](C)Cn2cnc3c(N)ncnc32)OC1 (stereo partly drawn) [Example 5c, (R)-2-(((1-(6-amino-9H-purin-9-yl)propan-2-yl)oxy)methyl)-5-methyl-1,3,2-dioxaphosphinane 2-oxide] | > 80 | 30 to 50 | – | – |
